Reference: patent US6313174A, “Aminobenzophenones as inhibitors of interleukin and TNF” (Leo Pharmaceutical Products Ltd.A/S/ (L.o slashed.vens …, priority 1997, dated 2001)

Key:
myeloperoxidase (MPO) = assay: TPA induced murine chronic skin inflammation model, myeloperoxidase (MPO) activity in ear biopsies; format: in vivo, mice; details: topical, twice daily on day 8, 9 and 10 and once on day 11
Experimental: (§1) To study the compounds of the present invention in vivo the 12--O--tetradecanoylphorbol-13-acetate (TPA) induced murine chronic skin inflammation model were used (De Young, L. M. et al, Agents Actions, 26, 335-341 (1989); Carlson, R. P. et al, Agents Actions, 17, 197-204 (1985); Alford, J. G. et al, Agents Action, 37, (1992); Stanley, P. L. et al, Skin Pharmacol, 4, 262-271 (1991)). The compounds were tested using the following procedure:
(§2) In groups of 6 female mice weighing 18-25 grams, ear skin inflammation was induced by multiple topical applications of TPA on alternate days during a 10 day period. The resulting inflammation was treated topically with compounds in acetone (20 μl/ear) twice daily on day 8, 9 and 10 and once on day 11. The increased ear thickness (ET, right ear thickness minus left ear thickness) was determined approximately 6 hours after the treatment, the mice were sacrificed and the myeloperoxidase (MPO)-activitywas determined in ear biopsies.

[1] = tested on: TPA induced murine skin inflammation; assay: TPA induced murine chronic skin inflammation model, ear thickness (ET); format: in vivo, mice; details: topical, twice daily on day 8, 9 and 10 and once on day 11
Experimental: as §1, §2

[2] = Spleen and thymus weight in the TPA induced murine skin inflammation model; format: in vivo, mice; details: 0.1 mg/ear, topical
Experimental: as §1, §2

PMN-superoxide = assay: Inhibition of PMN (polymorphonuclear) superoxide secretion; format: cell-based; details: human PMN granulocytes, TNF-α primed, fMLP 10^-7 M; read-out: The median inhibition concentration (IC50, nM) of PMN-superoxide
Experimental: The compounds of the present invention also show similar activities in the ability to inhibit PMN (polymorphonuclear) superoxide secretion which is also indicative of potentially useful anti-inflammatory drugs. The compounds were tested using the following procedure:
Human polymorphonuclear (PMN) granulocytes were isolated from human blood by dextran sedimentation, Lymphoprep® fractionation and hypotonic lysis of contaminating erythrocytes.
Superoxide anion generation was measured as the superoxide dismutase inhibitable reduction of ferricytochrome C (Madhu, S. B. et al, Inflammation, 16, 241, (1992)).
The cells were suspended in Hanks' balanced salt solution, and incubated for 10 minutes at 37° C. with test compounds. The cells were primed by the addition of TNF-α (3 ng/ml final concentration) for 10 minutes, and then ferricytochrome C, (final concentration 750 μg/ml), bovine serum albumin (BSA, final concentration 1 mg/ml) and formyl-methionyl-leucyl-phenylalanine (fMLP, final concentration 10^-7 M) were added for 3 minutes.
The cells were chilled on ice, and were spun down. The optical densities in the cell-free supernatant was measured in a spectrophotometer.
The median inhibitory concentration (IC50) of the compounds was calculated.

IL-1β = assay: Inhibition of IL-1β secretion from LPS stimulated peripheral blood mononuclear cells (ELISA); format: cell-based; details: LPS (1 μg/ml) stimulated human PBMC, 18 hours; read-out: The median inhibition concentration (IC50, nM) of IL-1β
Experimental: (§3) To study the effect of the compound of the present invention, in vitro, the inhibition of the IL-1β and TNF-α secretion was measured using the following procedure:
(§4) Cytokine production was measured in the media from lipopolysaccharide (LPS) stimulated peripheral blood mononuclear cells. The mononuclear cells were isolated from human peripheral blood by Lymphoprep® (Nycomed, Norway) fractionation and suspended in RPMI 1640 (growth medium) with foetal calv serum (FCS, 2%), at a concentration of 5×10^5 cells/ml. The cells were incubated in 24-well tissue culture plates in 1 ml aliquots. Test compounds were dissolved in dimethylsulfoxide (DMSO, 10 mM) and were diluted with the medium. Compounds were added to the cells for 30 minutes, then LPS (1 μg/ml final concentration) was added. The plates were incubated for 18 hours, and the concentration of IL-1β and TNF-α in the medium was determined by enzyme-linked immunosorbent assays. The median inhibitory concentrations (IC50) of the compounds were calculated.

TNF-α = assay: Inhibition of TNF-α secretion from LPS stimulated peripheral blood mononuclear cells (ELISA); format: cell-based; details: LPS (1 μg/ml) stimulated human PBMC, 18 hours; read-out: The median inhibition concentration (IC50, nM) of TNF-α
Experimental: as §3, §4

IC50 (PMN-superoxide) | IC50 (IL-1β) | IC50 (TNF-α) | SMILES | % inhibition of MPO (myeloperoxidase (MPO); 0.03 mg/ear) | % inhibition of MPO (myeloperoxidase (MPO); 0.1 mg/ear) | % inhibition of ET ([1]; 0.03 mg/ear) | % inhibition of ET ([1]; 0.1 mg/ear) | Reduction of spleen and thymus weight [2]
> 10000 nM | 100 nM | 130 nM | CCOC(=O)Nc1ccccc1Nc1ccc(C(=O)c2ccccc2)cc1 [Example 32, Ethyl N-(2-(4-benzoylphenylamino)phenyl)carbamate] |  |  |  |  | 
5 nM | 32 nM | 5 nM | CCOC(=O)Nc1ccccc1Nc1ccc(C(=O)c2ccccc2C)c(Cl)c1 [Example 73, Ethyl N-(2-(4-(2-methylbenzoyl)-3-chlorophenylamino)phenyl)carbamate] |  |  |  |  | 
5 nM | 13 nM | 7.1 nM | Cc1ccccc1C(=O)c1ccc(Nc2ccccc2N)cc1Cl [Example 56, 4-(2-Aminophenylamino)-2-chloro-2'-methylbenzophenone] |  |  |  |  | 
40 nM | 160 nM | 200 nM | Nc1ccccc1Nc1ccc(C(=O)c2ccccc2Cl)cc1 [Example 13, 4-(2-Aminophenylamino)-2'-chlorobenzophenone] |  |  |  |  | 

Continued, molecule first:

SMILES | IC50 (PMN-superoxide) | IC50 (IL-1β) | IC50 (TNF-α) | % inhibition of MPO (myeloperoxidase (MPO); 0.03 mg/ear) | % inhibition of MPO (myeloperoxidase (MPO); 0.1 mg/ear) | % inhibition of ET ([1]; 0.03 mg/ear) | % inhibition of ET ([1]; 0.1 mg/ear) | Reduction of spleen and thymus weight [2]
C[C@]12CCC(=O)C=C1CC[C@@H]1[C@@H]2[C@@H](O)C[C@@]2(C)[C@H]1CC[C@]2(O)C(=O)CO [Hydrocortisone, reference compound] |  |  |  | 51% | 69% | 36% | 58% | Reduction of spleen and thymus weight
Nc1ccccc1Nc1ccc(C(=O)c2ccccc2)cc1 [Example 1, 4-(2-Aminophenylamino)benzophenone] | 160 nM | 250 nM | 790 nM |  | 65% |  | 50% | 
Cc1ccc(S(=O)(=O)Nc2ccccc2Nc2ccc(C(=O)c3ccccc3)cc2)cc1 [Example 27, N-(2-(4-Benzoylphenylamino)phenyl)-4-toluenesulfonamide] |  |  |  |  | 48% |  | 44% | 
Nc1ccc(Nc2ccc(C(=O)c3ccccc3)cc2)cc1 [Example 2, 4-(4-Aminophenylamino)benzophenone] |  |  |  |  | 76% |  | 40% | 
